Tests used:
[1] = system: T cells in FolR1 positive tumor digests or malignant effusions; assay: Ex vivo treatment of tumor samples with FolR1-TCB (T cell activation); format: cell-based, human
Procedure: FolR1 positive tumor digests or malignant effusions were thawed, washed and plated in 96-well flat bottom cell culture plates (BD Falcon) with a density of 3×10^5 cells/200 μl/well in complete medium (DMEM+Sodium Pyruvate (1 mM)+MEM non essential AA (1×)+L-Glutamin (2 mM)+Penicillin/Streptomycin ([…])+2-Mercaptoethanol ([…])+Ciproxin (1 mg/ml)+10% human Serum). The samples were cultured in the presence or absence of FolR1-TCB or DP47 TCB at a concentration of 2 nM for 24h. Activation of CD8+ and CD4^+ T cells (CD45^+CD3+) upon FolR1-TCB treatment was determined by multicolor flow cytometry by measuring the expression of the cell surface markers CD25, CD69, CD137, ICOS, PD-1 and Tim-3. Furthermore the expression of granzyme B and IFN-γ was determined by intracellular staining.
To determine FolR1-TCB induced T cell activation, tumor samples were cultured in the presence or absence of FolR1-TCB or the control TCB DP-47. Then, T cells were characterized by multicolor flow cytometry for expression of activation markers and T cell effector functions, as described above. […] FolR1-TCB-induced perforin secretion was highly variable in TILs, and severely impaired in a subset of patients (FIG. 12N).

[2] = system: CFSE-labelled Skov3 cells; assay: Killing assay with tumor samples; format: cell-based, human
Procedure: To determine the FolR1-TCB induced tumor cell killing, 3×10^4 CFSE-labelled Skov3 cells were cocultured with tumor samples in the presence or absence of FolR1-TCB at a concentration of 2 nM for 24h in 96-well flat bottom cell culture plates. The E:T ratio (E: effector CD45^+CD3^+ cells; T: target FolR1^+ cells from tumor and added Skov3 cells) was adjusted to 1:1 in each well and the cell number of the added tumor samples was calculated for each sample according to prior characterization by flow cytometry. Cell death of Skov3 cells was determined by flow cytometry by measuring activated caspase 3 and the live/dead marker Live/Dead-near-IR. The assay was performed in triplicates. The FolR1-TCB mediated killing was calculated according to the following equation: % of specific killing=100−[(% of Skov3 live cells in FolR1-TCB treated sample/% of Skov3 live cells in untreated sample)×100].
To compare the FolR1-TCB-induced killing capacity of T-cells between tumor samples, and to exclude additional factors suppressing T-cell functionality, such as expression of PD-L1 on the tumor cells, we exogenously added CFSE-labeled FolR1^+ Skov3 cells to the tumor digests and adjusted the E:T ratio to 1:1, essentially as described above. We then measured the FolR1-TCB-induced killing of CFSE-labeled Skov3 cells, which allowed us to also include FolR1^− tumor samples into the analysis. […]

[3] = system: CD4 and CD8 T cells with SKOV3 cells; assay: T cell activation upon killing (CD25, CD69, flow cytometry); format: cell-based, human; details: SKOV3 and HT-29 cells
Procedure: (§1) FIGS. 7A-L depict graphs summarizing T cell mediated killing of HT-29 and SKOV3 cells. FolR1 TCBs were used to test T cell mediated killing of HT-29 and SKOV3 tumor cells and upregulation of activation marker on T cells upon killing. […] DP47 TCB was included as negative control. After 48 h incubation upregulation of the activation marker CD25 and CD69 on CD8 T cells and CD4 T cells upon killing of SKOV3 (FIGS. 7E-H) or HT-29 (FIG. 7I-L) tumor cells was assessed by flow cytometry.
(§2) Overall killing of SKOV3 cells was higher compared to HT-29 which reflects the higher expression levels of FolR1 on SKOV3 cells (FIGS. 7A-D). In line with this, a strong upregulation of the activation marker CD25 and CD69 on CD4^+ T cells and CD8^+ T cells was detected. Activation of T cells was very similar in the presence of SKOV3 cells and HT-29 cells.

[4] = system: FolR1 expressing tumor cells and FolR1 negative cell line MKN-45; assay: Flow cytometry binding to tumor cells with different FolR1 expression levels; design: species or system human
Description: FIGS. 6A-E depict graphs summarizing binding of FolR1 IgGs to cells with different FolR1 expression levels. […] DP47 IgG was included as isotype control and MKN-45 were included as FolR1 negative cell line.
The used panel of tumor cells contains FolR1 high, intermediate and low expressing tumor cells and a FolR1 negative cell line.
The amount of bound construct is proportional to the FolR1 expression level and there is still good binding of the constructs to the FolR1 low cell line HT-29 detectable. […] DP47 TCB is an untargeted TCB and was prepared as described in WO2014/131712.

[5] = system: CD8^+ T-cells with FolR1^+ ovarian cancer cell line Skov3; assay: PBMCs from healthy donors co-cultured with Skov3 cells, FolR1-TCB; format: cell-based, human; details: 0.6 pM to 2 nM for 24 h
Procedure: FIGS. 40A-C show activation of CD8^+ T-cells upon exposure to increasing concentrations of FolR1-TCB. PBMCs were co-cultured with Skov3 cells for 24 h in the presence or absence of FolR1-TCB or the unspecific control DP-47-TCB. […] Shaded histogram: isotype control; open histogram: anti-FolR1-antibody. FIG. 40B: The expression of the activation markers CD25, CD137, and ICOS on CD8^+ T-cells was determined by flow cytometry.
To assess the effect of FolR1-TCB on T-cell activation peripheral blood mononuclear cells (PBMCs) from healthy donors were co-cultured with the FolR1^+ ovarian cancer cell line Skov3 (FIG. 40A). […] In addition, T-cells secreted IL-2, IFN-γ, and TNF.

[6] = system: SKOV3 cells; assay: T cell mediated killing (LDH release); format: cell-based, human; details: SKOV3 and HT-29 cells
Procedure: as §1, §2

[7] = system: T cells in EpCAM positive tumor digests or malignant effusions; assay: Ex vivo treatment of tumor samples with catumaxomab; format: cell-based, human; details: 10 ng/ml, 24h; 4 NSCLC tumor digests
Procedure: The trifunctional TCB catumaxomab (Removab®) was obtained from Fresenius. The experimental conditions were similar as indicated above for FolR1-TCB. Briefly, EpCAM positive tumor digests or malignant effusions were cultured in the presence or absence of catumaxomab at a concentration of 10 ng/ml for 24h. Analysis of CD8÷ and CD4^+ positive T cells (CD45^+CD3+) was performed as described above.
To determine to which extent catumaxomab induces T cell activation and to confirm the findings described above using a second, independent T cell bispecific molecule, 4 tumor digests from patients with NSCLC were exposed to catumaxomab, a trifunctional bispecific antibody recognizing CD3 on T cells and EpCAM on tumor cells. Then, T cells were characterized by flow cytometry for expression of activation markers and T cell effector functions (FIG. 17A-D). […] Accordingly, the baseline expression of inhibitory receptors differed between the patients (FIG. 17E-H).

[8] = system: T cells in FolR1^+ tumor digests or malignant effusions; assay: FolR1-TCB with PD-1 blockade in tumor digests or malignant effusions; format: cell-based, human; details: combination with FolR1-TCB
Procedure: FIG. 38A-D: FolR1^+ tumor digests or malignant effusions were cultured for 24 h with FolR1-TCB in the presence or absence of a PD-1 blocking antibody. […] The increase in cytokine secretion upon combined FolR1-TCB and anti-PD-1 treatment compared with FolR1-TCB alone was determined in PD-1^hi scarce and abundant tumors. FIG. 38E: Tumor digests or malignant effusions were co-cultured with exogenously added fluorescently labeled Skov3 cells at an E:T ratio of 1:1 for 24 h in the presence or absence of a PD-1 blocking antibody and FolR1-TCB. The increase in specific killing by the anti-PD-1 antibody was compared in PD-1^hi scarce and abundant tumors. p-values were calculated using the unpaired Mann-Whitney test.
As the level of PD-1 expression on TILs correlates with the efficacy of FolR1-TCB, we analyzed whether blockade of the PD-1/PD-L1 axis in combination with FolR1-TCB treatment might be able to restore T-cell function.

[9] = system: T cells in tumor digests; assay: Polyclonal stimulation with anti-CD3/CD28 antibodies and PD-1 blockade; format: cell-based, human; details: 10 μg/ml, 24 hrs

In the case of “DP47 TCB: untargeted TCB, negative control, prepared as described in WO2014/131712”, the “T cell activation in tumor samples (in words)” value [1] is reported as “did not induce any T cell activation”, the “tumor cell killing (in words)” value [2] is reported as “did not induce any tumor cell killing” and the “upregulation of CD25 and CD69 on T cells (in words)” value [3] is reported as “no significant upregulation of CD25 and CD69 on T cells”. For the same substance, the “binding to panel of tumor cell lines” value [4] was “no binding”, the “activation of CD8^+ T-cells (in words)” value [5] was “did not induce any T-cell activation” and the “T cell mediated killing (in words)” value [6] was “does not induce any killing”.

In the case of catumaxomab, the “catumaxomab induced T cell activation (in words)” value [7] is reported as “striking heterogeneity in catumaxomab induced T cell activation”.

nivolumab: PD-1 blocking antibody was tested, and the “secretion of IFN-γ, TNF, IL-2 and perforin upon combined treatment with FolR1-TCB (in words)” value ([8]; 24 h) was “could be increased only in some of the PD-1^hi scarce tumors”, the “cytotoxic tumor cell killing upon additional PD-1 blockade (in words)” value ([8]; Skov3 cells E:T 1:1) was “could neither be improved” and the “restoration of T cell effector function by PD-1 blockade (in words)” value [9] was “could restore T cell effector function such as production and secretion of IL-2, IFN-γ and TNF-α only in some patients”.

From US10781262B2, “Combination therapy of T cell activating bispecific antigen binding molecules and PD-1 axis binding antagonists” (Hoffmann-La Roche Inc., priority 2014, dated 2020)
